Measurements as given in PubChem BioAssay (NCI).
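Test compounds were applied to cells in 96-well plates for 48 hours at 5 doses. GI50 marks 50% less growth. At the TGI there is no net growth.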

Assays:
Test in all cases: DTP human tumour cell line panel, 48 h
SK-MEL-2 melanoma = tested on: SK-MEL-2 melanoma
786-0 renal = tested on: 786-0 renal
SK-OV-3 ovarian = tested on: SK-OV-3 ovarian
HCT-116 colon = tested on: HCT-116 colon
SK-MEL-5 melanoma = tested on: SK-MEL-5 melanoma
ACHN renal = tested on: ACHN renal
SF-539 CNS = tested on: SF-539 CNS
LOX IMVI melanoma = tested on: LOX IMVI melanoma
UACC-257 melanoma = tested on: UACC-257 melanoma
K-562 leukemia = tested on: K-562 leukemia

Structure (SMILES) | GI50 (SK-MEL-2 melanoma) [nM] | TGI (SK-MEL-2 melanoma) [µM] | GI50 (786-0 renal) [nM] | TGI (786-0 renal) [µM] | GI50 (SK-OV-3 ovarian) [nM] | TGI (SK-OV-3 ovarian) [µM] | GI50 (HCT-116 colon) [nM] | TGI (HCT-116 colon) [µM] | GI50 (SK-MEL-5 melanoma) [nM] | TGI (SK-MEL-5 melanoma) [µM] | GI50 (ACHN renal) [nM] | TGI (ACHN renal) [µM] | GI50 (SF-539 CNS) [nM] | TGI (SF-539 CNS) [µM] | GI50 (LOX IMVI melanoma) [nM] | TGI (LOX IMVI melanoma) [µM] | TGI (UACC-257 melanoma) [µM] | TGI (K-562 leukemia) [µM] | GI50 (UACC-257 melanoma) [µM]
COc1ccc(C(=O)c2ccc([As]=O)cc2)cc1 (configuration not stated) | 173 | 0.373 | 60.5 | 0.191 | 181 | 0.346 | 38.7 | 0.154 | 140 | 0.288 | 33.3 | 0.119 | 43.2 | 0.163 | 23.7 | 0.075 | – | – | –
CC(=O)/C(=C/c1ccccc1F)C(=O)c1ccccc1 | – | 93.8 | – | > 100 | – | > 100 | – | > 100 | – | > 100 | – | > 100 | – | > 100 | – | 40.8 | 91.3 | – | –
N/N=C1\C(=O)N(CCc2ccccc2)C(=O)C1C(=O)NCCc1ccccc1 (configuration not stated) | – | > 100 | – | > 100 | – | > 100 | – | > 100 | – | – | – | > 100 | – | > 100 | – | > 100 | > 100 | > 100 | –
CC(=O)O[C@H]1CCc2c(cc(N)c3c2C(=O)C[C@]2(C)C([C@H](C)CCCC(C)C)CCC32C)C1(C)C (some centres not stated) | – | > 100 | – | > 100 | – | > 100 | – | > 100 | – | > 100 | – | > 100 | – | > 100 | – | – | > 100 | > 100 | –
N#Cc1ccc(NC(=O)C(CC(=O)OCc2ccccc2)NC(=O)OCc2ccccc2)cc1 (configuration not stated) | – | > 100 | > 100000 | > 100 | > 100000 | > 100 | > 100000 | > 100 | – | > 100 | > 100000 | > 100 | – | – | > 100000 | > 100 | > 100 | – | > 100
CC(=O)OCC1OC(N2C(=O)C(=O)c3ccccc32)C(OC(C)=O)C(OC(C)=O)C1OC(C)=O (configuration not stated) | – | > 100 | – | > 100 | – | > 100 | – | – | – | > 100 | – | > 100 | – | > 100 | – | > 100 | > 100 | > 100 | –
CCOC(=O)c1cc2c3c(c(O)c(OC)c2s1)N(C(=O)c1cc2c4c(c(O)c(OC)c2s1)N(C(C)=O)CC4)CC3 | – | – | – | > 100 | – | > 100 | – | > 100 | – | > 100 | – | > 100 | – | > 100 | – | > 100 | > 100 | > 100 | –
CCNC(=O)COc1ccc(Cl)cc1Cl | – | > 100 | – | > 100 | – | > 100 | – | > 100 | – | > 100 | – | > 100 | – | > 100 | – | – | > 100 | > 100 | –
O=c1c2cc(Br)ccc2nc(CCl)n1-c1ccc(O)c([N+](=O)[O-])c1 | – | 31.1 | – | 31.8 | – | 93.5 | – | – | – | 29.8 | – | 79.9 | – | 33.5 | – | 36.2 | 48.2 | 48.5 | –
COCCOCCOC1=CC(=O)c2c(O)ccc(O)c2C1=O | – | 3.47 | – | 3.2 | – | – | – | 1.05 | – | 0.329 | – | 2.99 | – | 3.9 | – | 3.11 | 1.43 | 3.77 | –
